Measured values reported in the supplement of paper PMC10307832.

How the values were obtained:
Experiment in all cases: relative viability (nuclei count vs DMSO), 5 days (fraction); higher = more cells survive
Cediranib + Foretinib = compound: COc1cc2c(Oc3ccc4[nH]c(C)cc4c3F)ncnc2cc1OCCCN1CCCC1 [Cediranib] + COc1cc2c(Oc3ccc(NC(=O)C4(C(=O)Nc5ccc(F)cc5)CC4)cc3F)ccnc2cc1OCCCN1CCOCC1 [Foretinib] (partner 0.25 µM)
Outline: (§1)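 Relative viability was taken as the ratio of nuclei in treated wells to nuclei in vehicle wells. Lung cancer cell lines in 1536-well plates received compounds by pin tool one day after seeding, either one drug alone or a fixed anchor-drug dose plus five library-drug doses (not always all listed) in √10 steps. Nuclei were counted on 4× images after 5 days of treatment, and values are medians of duplicate plates.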

Decitabine + Alpelisib = compound: Nc1ncn([C@H]2C[C@H](O)[C@@H](CO)O2)c(=O)n1 [Decitabine] + Cc1nc(NC(=O)N2CCC[C@H]2C(N)=O)sc1-c1ccnc(C(C)(C)C(F)(F)F)c1 [Alpelisib] (partner 2 µM)
Outline: as §1

Decitabine + Pemetrexed = compound: Nc1ncn([C@H]2C[C@H](O)[C@@H](CO)O2)c(=O)n1 [Decitabine] + Nc1nc2[nH]cc(CCc3ccc(C(=O)N[C@@H](CCC(=O)O)C(=O)O)cc3)c2c(=O)[nH]1 [Pemetrexed] (partner 0.2 µM)
Outline: as §1

Halofuginone + Lapatinib = compound: O=C(C[C@H]1NCCC[C@@H]1O)Cn1cnc2cc(Br)c(Cl)cc2c1=O (racemic) [Halofuginone] + CS(=O)(=O)CCNCc1ccc(-c2ccc3ncnc(Nc4ccc(OCc5cccc(F)c5)c(Cl)c4)c3c2)o1 [Lapatinib] (partner 2 µM)
Outline: as §1

Cell Line | relative viability (Cediranib + Foretinib; first compound 0.04 µM) | relative viability (Cediranib + Foretinib; first compound 0.1265 µM) | relative viability (Cediranib + Foretinib; first compound 0.4 µM) | relative viability (Cediranib + Foretinib; first compound 1.265 µM) | relative viability (Cediranib + Foretinib; first compound 4 µM) | relative viability (Decitabine + Alpelisib; first compound 0.04 µM) | relative viability (Decitabine + Alpelisib; first compound 0.1265 µM) | relative viability (Decitabine + Alpelisib; first compound 0.4 µM) | relative viability (Decitabine + Alpelisib; first compound 1.265 µM) | relative viability (Decitabine + Alpelisib; first compound 4 µM) | relative viability (Decitabine + Pemetrexed; first compound 0.04 µM) | relative viability (Decitabine + Pemetrexed; first compound 0.1265 µM) | relative viability (Decitabine + Pemetrexed; first compound 0.4 µM) | relative viability (Decitabine + Pemetrexed; first compound 1.265 µM) | relative viability (Decitabine + Pemetrexed; first compound 4 µM) | relative viability (Halofuginone + Lapatinib; first compound 0.001 µM) | relative viability (Halofuginone + Lapatinib; first compound 0.003162 µM) | relative viability (Halofuginone + Lapatinib; first compound 0.01 µM) | relative viability (Halofuginone + Lapatinib; first compound 0.03162 µM) | relative viability (Halofuginone + Lapatinib; first compound 0.1 µM)
NCI-H1944 | 0.95 | 0.975 | 0.905 | 0.873 | 1 | 0.874 | 0.797 | 0.725 | 0.473 | 0.435 | 0.438 | 0.448 | 0.288 | 0.228 | 0.211 | 0.709 | 0.835 | 0.852 | 0.825 | 0.675
HOP-62 | 1.3 | 1.15 | 1.1 | 1.15 | 1.22 | 0.652 | 0.323 | 0.152 | 0.124 | 0.125 | 0.283 | 0.31 | 0.205 | 0.186 | 0.183 | 0.983 | 1.09 | 0.936 | 0.791 | 0.948
NCI-H2347 | 0.918 | 1.03 | 0.996 | 0.833 | 0.957 | 0.898 | 0.848 | 0.675 | 0.597 | 0.665 | 0.401 | 0.396 | 0.382 | 0.366 | 0.386 | 1 | 0.853 | 0.906 | 0.918 | 0.65
NCI-H2087 | 1.19 | 1.06 | 0.944 | 1.15 | 1.29 | 0.683 | 0.564 | 0.487 | 0.338 | 0.36 | 0.573 | 0.49 | 0.451 | 0.291 | 0.267 | 1.05 | 1.29 | 1.21 | 0.959 | 1.19
EPLC-272H | 0.634 | – | 0.634 | – | 0.693 | 0.723 | 0.688 | – | 0.606 | 0.525 | 0.346 | 0.256 | – | 0.339 | 0.27 | 0.891 | 0.851 | 0.976 | 0.958 | 0.907
LXF-289 | 1.02 | 0.822 | 0.912 | 0.982 | 0.936 | 0.716 | 0.606 | 0.478 | 0.352 | 0.315 | 0.69 | 0.541 | 0.423 | 0.315 | 0.297 | 0.891 | 0.893 | 0.847 | 0.874 | 0.895
COR-L23 | 0.943 | 0.938 | 0.916 | 1.05 | 1.09 | 0.412 | 0.346 | 0.311 | 0.225 | 0.213 | 0.198 | 0.207 | 0.18 | 0.178 | 0.196 | 0.924 | 1.06 | 0.95 | 1.01 | 0.379
RERF-LC-KJ | 0.917 | 0.889 | 0.873 | 0.862 | 0.953 | 0.87 | 0.914 | 0.702 | 0.643 | 0.569 | 0.441 | 0.403 | 0.215 | 0.401 | 0.369 | 0.951 | 0.888 | 0.795 | 0.833 | 0.874
